Values quoted from earlier work in patent US6576673B2, “Method of deterring woodpeckers” (priority 2001, dated 2003).

Tested on: golden fronted adult woodpeckers
Settings: painted or applied to a surface of a utility pole; smaller golden fronted adult woodpeckers

CC1=CC(=O)CC(C)(C)C1 [Isophorone, 3,5,5-trimethyl-2-cyclohexen-one-1]
repelling woodpeckers: effective in repelling woodpeckers
